Results: BindingDB's records for doi:10.1021/jm00003a020 (University of Washington, 1995)

Experiment: Inhibitory concentration was determined against delta-opioid receptor using [3H]- DPDPE radioligand

Oc1ccc2c3c1O[C@H]1[C@H](OCc4ccc(N=C=S)cc4)CC[C@@]4(O)C(C2)N(CC2CC2)CCC314 (stereo partly drawn) [4-cyclopropylmethyl-14-(4-isothiocyanatobenzyloxy)-(1S,13R,14R,17S)-12-oxa-4-azapentacyclo[9.6.1.01,13.05,17.07,18]octadeca-7,9,11(18)-triene-10,17-diol(p-NCS)] showed an IC50 of 35 nM.

Molecule Oc1ccc2c3c1O[C@H]1[C@H](OCc4ccccc4CN=C=S)CC[C@@]4(O)C(C2)N(CC2CC2)CCC314 (stereo partly drawn) [4-cyclopropylmethyl-14-(2-isothiocyanatomethylbenzyloxy)-(1S,13R,14R,17S)-12-oxa-4-azapentacyclo[9.6.1.01,13.05,17.07,18]octadeca-7,9,11(18)-triene-10,17-diol(o-CH2NCS)] has an IC50 of 22 nM.

With Oc1ccc2c3c1O[C@H]1[C@H](OCc4cccc(N=C=S)c4)CC[C@@]4(O)C(C2)N(CC2CC2)CCC314 (stereo partly drawn) [4-cyclopropylmethyl-14-(3-isothiocyanatobenzyloxy)-(1S,13R,14R,17S)-12-oxa-4-azapentacyclo[9.6.1.01,13.05,17.07,18]octadeca-7,9,11(18)-triene-10,17-diol(m-NCS)] the IC50 was 6.5 nM.

In the case of Oc1ccc2c3c1O[C@H]1[C@H](OCc4ccccc4N=C=S)CC[C@@]4(O)C(C2)N(CC2CC2)CCC314 (stereo partly drawn) [4-cyclopropylmethyl-14-(2-isothiocyanatobenzyloxy)-(13R,14R,17S)-12-oxa-4-azapentacyclo[9.6.1.01,13.05,17.07,18]octadeca-7,9,11(18)-triene-10,17-diol(o-NCS)], the IC50 is reported as 1.8 nM.

Molecule Oc1ccc2c3c1O[C@H]1[C@H](OCc4cccc(CN=C=S)c4)CC[C@@]4(O)C(C2)N(CC2CC2)CCC314 (stereo partly drawn) [4-cyclopropylmethyl-14-(3-isothiocyanatomethylbenzyloxy)-(1S,13R,14R,17S)-12-oxa-4-azapentacyclo[9.6.1.01,13.05,17.07,18]octadeca-7,9,11(18)-triene-10,17-diol(m-CH2NCS)] has an IC50 of 12 nM.
